Data set [1] has as its target T1, ATP-binding cassette sub-family C member 4 (Homo sapiens, UniProt O15439).
T1 sequence (O15439 whole entry): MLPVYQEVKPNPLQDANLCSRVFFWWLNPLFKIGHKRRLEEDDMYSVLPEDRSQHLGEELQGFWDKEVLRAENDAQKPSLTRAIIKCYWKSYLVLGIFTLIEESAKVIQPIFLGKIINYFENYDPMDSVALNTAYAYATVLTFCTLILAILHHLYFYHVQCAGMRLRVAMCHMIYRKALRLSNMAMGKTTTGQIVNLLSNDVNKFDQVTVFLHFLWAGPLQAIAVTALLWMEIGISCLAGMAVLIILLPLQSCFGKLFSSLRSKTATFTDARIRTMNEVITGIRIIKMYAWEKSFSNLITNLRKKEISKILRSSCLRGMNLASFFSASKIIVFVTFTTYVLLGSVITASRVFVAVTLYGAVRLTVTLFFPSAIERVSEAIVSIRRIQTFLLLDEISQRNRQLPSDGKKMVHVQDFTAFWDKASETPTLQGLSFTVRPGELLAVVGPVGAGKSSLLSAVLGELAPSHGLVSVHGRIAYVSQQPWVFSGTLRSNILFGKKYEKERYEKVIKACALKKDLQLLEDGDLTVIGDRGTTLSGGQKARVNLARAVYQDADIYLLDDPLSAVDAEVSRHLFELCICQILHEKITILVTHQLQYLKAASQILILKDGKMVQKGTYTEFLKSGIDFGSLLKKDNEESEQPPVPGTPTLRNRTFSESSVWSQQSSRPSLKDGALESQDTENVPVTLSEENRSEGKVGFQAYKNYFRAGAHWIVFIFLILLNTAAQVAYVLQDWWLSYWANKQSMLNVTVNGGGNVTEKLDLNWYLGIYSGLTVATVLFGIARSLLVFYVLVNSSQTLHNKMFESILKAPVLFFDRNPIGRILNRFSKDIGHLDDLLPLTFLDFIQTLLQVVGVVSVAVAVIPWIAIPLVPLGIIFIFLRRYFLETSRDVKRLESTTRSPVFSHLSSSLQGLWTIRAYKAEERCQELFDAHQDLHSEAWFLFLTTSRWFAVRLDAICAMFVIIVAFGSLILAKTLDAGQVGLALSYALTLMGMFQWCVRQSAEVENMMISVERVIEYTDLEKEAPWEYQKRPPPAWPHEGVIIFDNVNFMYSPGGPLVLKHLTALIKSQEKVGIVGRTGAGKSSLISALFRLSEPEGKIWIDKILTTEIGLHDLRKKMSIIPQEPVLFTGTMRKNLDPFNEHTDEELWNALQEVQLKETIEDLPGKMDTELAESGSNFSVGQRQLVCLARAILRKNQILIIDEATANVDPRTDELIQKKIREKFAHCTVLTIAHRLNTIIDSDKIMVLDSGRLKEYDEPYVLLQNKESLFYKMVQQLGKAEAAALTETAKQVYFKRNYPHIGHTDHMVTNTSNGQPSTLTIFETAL
The data set can be described thus: Inhibition of human MRP4 overexpressed in Sf9 cell membrane vesicles assessed as uptake of [3H]-estradiol-17beta-D-glucuronide in presence of ATP and GSH measured after 20 mins by membrane vesicle transport assay. Format: ADME, cell-based.

The nature of data set [2]: Drug concentration at steady state in patient with advanced phase CML and Ph+ ALL at 100 mg, po BID after 12 hrs. The class given is ADME, organism-based. The settings on record: human, in vivo, read-out: Css.
Data set [3] deals with ATP-binding cassette sub-family C member 2 (Homo sapiens, UniProt Q92887). The data set is described as follows: Inhibition of human MRP2 overexpressed in Sf9 cell membrane vesicles assessed as uptake of [3H]-estradiol-17beta-D-glucuronide in presence of ATP and GSH measured after 20 mins by membrane vesicle transport assay.
Chain of ATP-binding cassette sub-family C member 2 (Q92887 whole entry): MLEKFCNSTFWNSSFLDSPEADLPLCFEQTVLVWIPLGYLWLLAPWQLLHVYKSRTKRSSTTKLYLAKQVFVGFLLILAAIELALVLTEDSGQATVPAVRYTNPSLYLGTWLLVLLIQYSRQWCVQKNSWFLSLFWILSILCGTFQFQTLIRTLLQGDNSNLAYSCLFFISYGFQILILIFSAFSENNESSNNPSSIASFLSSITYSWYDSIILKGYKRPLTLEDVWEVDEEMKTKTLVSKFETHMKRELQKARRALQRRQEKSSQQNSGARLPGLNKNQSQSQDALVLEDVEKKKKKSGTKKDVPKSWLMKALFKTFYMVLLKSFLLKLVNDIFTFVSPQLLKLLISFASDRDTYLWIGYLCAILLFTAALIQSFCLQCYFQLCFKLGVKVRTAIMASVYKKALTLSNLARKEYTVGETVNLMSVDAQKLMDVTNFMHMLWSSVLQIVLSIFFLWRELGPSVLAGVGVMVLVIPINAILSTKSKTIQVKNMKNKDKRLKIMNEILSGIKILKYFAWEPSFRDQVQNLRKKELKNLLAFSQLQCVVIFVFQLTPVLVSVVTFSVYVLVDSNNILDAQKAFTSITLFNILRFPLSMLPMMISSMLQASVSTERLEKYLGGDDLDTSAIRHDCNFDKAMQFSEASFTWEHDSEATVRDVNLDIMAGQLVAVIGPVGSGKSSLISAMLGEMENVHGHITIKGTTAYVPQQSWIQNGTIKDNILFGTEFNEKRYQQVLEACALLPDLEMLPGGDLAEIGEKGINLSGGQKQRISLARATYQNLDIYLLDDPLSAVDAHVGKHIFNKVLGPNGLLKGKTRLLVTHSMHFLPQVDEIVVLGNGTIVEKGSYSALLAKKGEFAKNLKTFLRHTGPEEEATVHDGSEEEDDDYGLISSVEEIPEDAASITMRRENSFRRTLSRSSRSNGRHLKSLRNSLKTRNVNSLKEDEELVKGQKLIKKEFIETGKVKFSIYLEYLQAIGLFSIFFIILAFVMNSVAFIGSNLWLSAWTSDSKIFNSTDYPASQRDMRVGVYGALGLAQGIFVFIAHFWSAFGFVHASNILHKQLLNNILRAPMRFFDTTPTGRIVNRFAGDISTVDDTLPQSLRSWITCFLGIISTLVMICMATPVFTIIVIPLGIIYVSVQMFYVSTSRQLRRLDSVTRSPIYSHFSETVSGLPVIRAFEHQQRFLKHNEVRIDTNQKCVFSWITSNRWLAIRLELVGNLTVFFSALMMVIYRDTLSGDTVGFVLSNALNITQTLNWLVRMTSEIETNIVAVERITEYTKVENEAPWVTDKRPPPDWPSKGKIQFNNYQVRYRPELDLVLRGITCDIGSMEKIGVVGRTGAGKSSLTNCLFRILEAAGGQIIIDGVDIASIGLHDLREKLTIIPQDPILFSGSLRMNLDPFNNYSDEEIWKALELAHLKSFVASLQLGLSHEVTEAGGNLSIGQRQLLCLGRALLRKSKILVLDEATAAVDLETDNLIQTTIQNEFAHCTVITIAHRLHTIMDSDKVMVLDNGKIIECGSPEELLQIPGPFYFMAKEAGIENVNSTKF
The target in data set [4] is ATP-binding cassette sub-family C member 3 (Homo sapiens, UniProt O15438). The data set can be described thus: Inhibition of human MRP3 overexpressed in Sf9 insect cell membrane vesicles assessed as uptake of [3H]-estradiol-17beta-D-glucuronide in presence of ATP and GSH measured after 10 mins by membrane vesicle transport assay. The class given is ADME, cell-based.
Chain of ATP-binding cassette sub-family C member 3 (O15438 whole entry): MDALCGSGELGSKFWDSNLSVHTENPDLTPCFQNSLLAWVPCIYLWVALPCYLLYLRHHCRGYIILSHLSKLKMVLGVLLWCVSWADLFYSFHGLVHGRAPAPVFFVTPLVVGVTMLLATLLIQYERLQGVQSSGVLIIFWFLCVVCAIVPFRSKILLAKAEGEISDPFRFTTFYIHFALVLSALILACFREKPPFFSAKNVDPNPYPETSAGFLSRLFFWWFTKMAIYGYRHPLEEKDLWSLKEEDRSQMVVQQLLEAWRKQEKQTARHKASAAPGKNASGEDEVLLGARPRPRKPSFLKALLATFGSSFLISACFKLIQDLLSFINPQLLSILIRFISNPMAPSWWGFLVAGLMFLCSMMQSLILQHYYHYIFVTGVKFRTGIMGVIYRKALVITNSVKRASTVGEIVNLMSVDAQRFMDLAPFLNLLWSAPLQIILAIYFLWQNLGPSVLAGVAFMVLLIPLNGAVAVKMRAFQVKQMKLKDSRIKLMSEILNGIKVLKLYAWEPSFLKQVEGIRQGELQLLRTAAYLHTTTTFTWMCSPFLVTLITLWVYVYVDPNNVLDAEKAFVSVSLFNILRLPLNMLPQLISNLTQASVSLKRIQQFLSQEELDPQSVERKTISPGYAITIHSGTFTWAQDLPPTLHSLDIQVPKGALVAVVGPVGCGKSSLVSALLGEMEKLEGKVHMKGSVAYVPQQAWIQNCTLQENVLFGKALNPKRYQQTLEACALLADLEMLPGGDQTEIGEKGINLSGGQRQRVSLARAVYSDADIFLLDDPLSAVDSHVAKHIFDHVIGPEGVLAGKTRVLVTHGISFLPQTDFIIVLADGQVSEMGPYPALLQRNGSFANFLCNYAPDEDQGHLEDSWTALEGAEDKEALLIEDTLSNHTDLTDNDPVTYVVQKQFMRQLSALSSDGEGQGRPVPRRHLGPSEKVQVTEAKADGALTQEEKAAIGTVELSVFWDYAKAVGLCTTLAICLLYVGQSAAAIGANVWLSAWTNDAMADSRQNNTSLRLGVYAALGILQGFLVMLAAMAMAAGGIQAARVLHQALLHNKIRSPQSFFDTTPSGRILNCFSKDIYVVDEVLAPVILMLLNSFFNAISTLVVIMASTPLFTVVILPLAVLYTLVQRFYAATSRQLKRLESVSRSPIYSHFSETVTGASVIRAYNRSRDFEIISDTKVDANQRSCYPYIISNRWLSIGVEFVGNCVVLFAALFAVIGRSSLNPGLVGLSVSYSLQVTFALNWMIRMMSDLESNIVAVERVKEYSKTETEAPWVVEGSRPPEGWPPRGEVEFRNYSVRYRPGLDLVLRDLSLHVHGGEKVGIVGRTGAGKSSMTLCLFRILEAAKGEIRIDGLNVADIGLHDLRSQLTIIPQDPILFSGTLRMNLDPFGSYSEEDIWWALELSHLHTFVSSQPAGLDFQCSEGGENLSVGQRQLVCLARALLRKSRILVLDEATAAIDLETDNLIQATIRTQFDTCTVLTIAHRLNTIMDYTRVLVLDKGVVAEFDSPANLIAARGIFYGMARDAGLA

A short description of data set [5]: AUC in patient with advanced phase CML and Ph+ ALL at 100 mg, po BID after 12 hrs. The class given is ADME, organism-based. Further details: dose 100 mg, time < 12 hr, route oral. The settings on record: human, in vivo.
A further data set has as its target Bile salt export pump (Homo sapiens, UniProt O95342). The data set is described as follows: Inhibition of human BSEP overexpressed in Sf9 cell membrane vesicles assessed as uptake of [3H]-taurocholate in presence of ATP measured after 15 to 20 mins by membrane vesicle transport assay. The class given is ADME, cell-based.
Data set [6] is described as follows: AUC in patient with chronic phase CML at 70 to 90 mg, po BID after 12 hrs. Format: ADME, organism-based. The settings on record: human, in vivo.
Data set [7] can be described thus: Drug concentration at steady state in patient with chronic phase CML at 70 to 90 mg, po BID after 12 hrs. Format: ADME, organism-based. Particulars: human, in vivo, read-out: Css.
Data set [8] can be described thus: Ratio of drug concentration at steady state patient with chronic phase CML at 70 to 90 mg, po BID after 12 hrs to IC50 for human MRP4 overexpressed in Sf9 insect cells. Format: ADME, organism-based. Particulars: in vivo.
Data set [9] in a line: Ratio of drug concentration at steady state in patient with chronic phase CML at 70 to 90 mg, po BID after 12 hrs to IC50 for human BSEP overexpressed in Sf9 insect cells. The class given is ADME, organism-based. Particulars: in vivo.
Data set [10] can be described thus: Ratio of drug concentration at steady state in patient with advanced phase CML and Ph+ ALL at 100 mg, po BID after 12 hrs to IC50 for human BSEP overexpressed in Sf9 insect cells. Particulars: in vivo. The class given is ADME, organism-based.
Data set [11] in a line: Ratio of drug concentration at steady state in patient with advanced phase CML and Ph+ ALL at 100 mg, po BID after 12 hrs to IC50 for human MRP4 overexpressed in Sf9 insect cells. Format: ADME, organism-based. Particulars: in vivo.
Data set [12] can be described thus: Ratio of drug concentration at steady state in human at 800 mg administered once per week for 6 weeks through intravesical instillation measured after 6 hrs to IC50 for human MRP2 overexpressed in Sf9 insect cells. Format: ADME. The settings on record: in vivo, other.
A short description of data set [13]: Ratio of drug concentration at steady state in human at 800 mg administered once per week for 6 weeks through intravesical instillation measured after 6 hrs to IC50 for human MRP4 overexpressed in Sf9 insect cells. The class given is ADME. The settings on record: in vivo, other.
Data set [14] can be described thus: Ratio of drug concentration at steady state in human at 800 mg administered once per week for 6 weeks through intravesical instillation measured after 6 hrs to IC50 for human MRP3 overexpressed in Sf9 insect cells. Particulars: in vivo, other. The class given is ADME.
A short description of data set [15]: Ratio of drug concentration at steady state in human at 800 mg administered once per week for 6 weeks through intravesical instillation measured after 6 hrs to IC50 for human BSEP overexpressed in Sf9 insect cells. Format: ADME. Particulars: in vivo, other.
Data set [16] is described as follows: Drug concentration at steady state in human at 800 mg administered once per week for 6 weeks through intravesical instillation measured after 6 hrs. The class given is ADME. The settings on record: in vivo, read-out: Css.
Data set [17] in a line: AUC (0 to 6 hrs) in human at 800 mg administered once per week for 6 weeks through intravesical instillation measured after 6 hrs. The class given is ADME. Also on record: dose 800 mg, time < 6 hr. Particulars: in vivo.
Data set [18] in a line: AUC in human at 5 to 10 mg, po after 24 hrs. The settings on record: in vivo. The class given is ADME, organism-based.
The test system of data set [19] is Homo sapiens. The data set is described as follows: Drug concentration at steady state in human at 5 to 10 mg, po after 24 hrs. The settings on record: in vivo.
A short description of data set [20]: AUC in human at 20 to 40 mg, iv QD after 24 hrs. Format: ADME, organism-based. The settings on record: in vivo.
Data set [21] is described as follows: Ratio of drug concentration at steady state in human at 20 to 40 mg, iv QD after 24 hrs to IC50 for human BSEP overexpressed in Sf9 insect cells. Format: ADME, organism-based. The settings on record: in vivo.
For data set [22], the system named is Homo sapiens. The data set is described as follows: Drug concentration at steady state in human at 20 to 40 mg, iv QD after 24 hrs. The class given is ADME, organism-based. Particulars: in vivo.

pIC50: −log10 of the molar value.

Chain of Bile salt export pump (O95342 whole entry): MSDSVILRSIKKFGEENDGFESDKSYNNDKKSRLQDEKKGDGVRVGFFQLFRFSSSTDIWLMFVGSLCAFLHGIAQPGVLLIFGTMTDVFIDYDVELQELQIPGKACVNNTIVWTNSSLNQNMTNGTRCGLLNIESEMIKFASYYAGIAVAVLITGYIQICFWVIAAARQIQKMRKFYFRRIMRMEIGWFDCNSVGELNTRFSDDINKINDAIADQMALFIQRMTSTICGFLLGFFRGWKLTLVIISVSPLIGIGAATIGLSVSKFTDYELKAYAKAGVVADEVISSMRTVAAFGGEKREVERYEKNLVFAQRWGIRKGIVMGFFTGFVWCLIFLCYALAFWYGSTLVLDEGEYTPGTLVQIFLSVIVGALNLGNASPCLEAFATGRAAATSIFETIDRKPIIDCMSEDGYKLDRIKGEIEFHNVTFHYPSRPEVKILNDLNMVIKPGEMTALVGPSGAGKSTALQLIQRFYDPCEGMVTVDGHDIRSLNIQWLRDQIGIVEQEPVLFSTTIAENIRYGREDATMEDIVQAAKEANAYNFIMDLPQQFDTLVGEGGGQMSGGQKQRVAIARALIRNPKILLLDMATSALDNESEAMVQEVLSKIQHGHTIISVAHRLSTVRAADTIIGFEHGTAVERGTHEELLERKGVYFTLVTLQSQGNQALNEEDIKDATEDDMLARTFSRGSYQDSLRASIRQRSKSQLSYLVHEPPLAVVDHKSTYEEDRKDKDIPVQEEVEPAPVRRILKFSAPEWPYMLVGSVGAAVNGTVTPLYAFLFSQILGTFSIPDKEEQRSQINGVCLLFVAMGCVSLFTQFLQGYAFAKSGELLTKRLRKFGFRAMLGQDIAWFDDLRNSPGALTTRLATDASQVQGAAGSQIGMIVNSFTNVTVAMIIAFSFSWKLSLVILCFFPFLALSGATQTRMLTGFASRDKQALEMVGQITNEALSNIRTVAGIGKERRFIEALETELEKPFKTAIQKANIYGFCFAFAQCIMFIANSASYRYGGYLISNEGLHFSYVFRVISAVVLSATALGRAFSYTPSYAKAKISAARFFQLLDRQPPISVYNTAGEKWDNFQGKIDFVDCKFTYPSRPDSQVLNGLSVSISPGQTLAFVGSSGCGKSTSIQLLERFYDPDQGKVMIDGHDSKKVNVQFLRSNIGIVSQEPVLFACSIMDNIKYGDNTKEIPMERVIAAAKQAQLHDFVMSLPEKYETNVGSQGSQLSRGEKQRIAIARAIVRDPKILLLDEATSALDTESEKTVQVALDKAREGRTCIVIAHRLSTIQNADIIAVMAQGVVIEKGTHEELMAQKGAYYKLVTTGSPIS

By pIC50 is commonly meant the IC50 on a negative log10 scale, so that one unit is a factor of ten. As usually defined, the AUC is concentration integrated over time. `Cc1nc(Nc2ncc(C(=O)Nc3c(C)cccc3Cl)s2)cc(N2CCN(CCO)CC2)n1.O` [DASATINIB]: the negative-log IC50 (pIC50) in [1] is 4.56; in data set [3], less than 3.88; in data set [4] it was less than 3.88; on Bile salt export pump, 4.88. Besides, the concentration at 12 h in data set [2] and in data set [7] was 52 nM in each case. The exposure (AUC) at 12 h in data set [5] and in data set [6] was 0.624 µM·h in each case. In addition, the Ratio came out at 0.002 in data set [8], 0.004 in data set [9], 0.004 in data set [10] and 0.002 in [11].
For the compound `CCCCC(=O)OCC(=O)[C@]1(O)Cc2c(O)c3c(c(O)c2[C@@H](O[C@H]2C[C@H](NC(=O)C(F)(F)F)[C@H](O)[C@H](C)O2)C1)C(=O)c1c(OC)cccc1C3=O` [VALRUBICIN], the Ratio in [12] is on record as 0.002; in data set [13], 0.004; in data set [14], 0.002; in data set [15], 0.005. Further, the negative logarithm of the IC50 (pIC50) in data set [1] was 4.43; in data set [3] it was 4.19; in data set [4], 4.12; at Bile salt export pump, 4.62. Also, the concentration at 6 h in data set [16] was 131 nM. For the same compound, the AUC at 6 h in data set [17] turned out to be 0.788 µM·h.
In [18], `COc1cc2c(cc1OC)C(=O)C(CC1CCN(Cc3ccccc3)CC1)C2` (centres undefined) [DONEPEZIL] displayed an AUC at 24 h of 9.76 µM·h. Besides, the figures for the pIC50 in [1], in [3] and in [4] were 4.14, less than 3.88 and less than 3.88, respectively. The same compound gave a Css in the data set on Homo sapiens [19] of 0.406 µM.
`COc1ccc2[nH]c([S+]([O-])Cc3ncc(C)c(OC)c3C)nc2c1` (centres undefined) [OMEPRAZOLE]: the pIC50 in [1] was less than 3.88; in [3], less than 3.88; in data set [4], less than 3.88; on Bile salt export pump, 4.00. In data set [20], this compound showed an exposure (AUC) at 24 h of 11.2 µM·h. Further, in data set [21], the Ratio was found to be 0.005. Also, the Css with Homo sapiens [22] was 0.4682 µM.

Source of the values: ChEMBL document CHEMBL4028801, “A multifactorial approach to hepatobiliary transporter assessment enables improved therapeutic compound development” (Toxicol Sci, 2013).
